Target: T1, PLK1 (Homo sapiens, UniProt P53350)
T1 construct: endogenous in cells; host or cells: HeLa LgBit (Plk1-HiBit KI): HeLa stably expressing LgBit, with a CRISPR/Cas9 knock-in of HiBit at the endogenous PLK1 locus
Experiment: Luciferase assay for PLK1 in HeLa LgBit (Plk1-HiBit KI) cell line
Assay type: cell-based
Details: 300 nM compound, luminescence after 9 hours
Procedure: 2. Luciferase Assay for PLK1
(1) Preparation and Culture of HeLa LgBit (Plk1-HiBit KI) Cell Line
A HeLa cell line in which the LgBit vector was transfected and expressed stably was prepared. Then, after constructing gRNA and donor to express the HiBit amino acid sequence behind the C-terminal of the Plk1 gene, which was inherent in the cell, it was inserted into the cell together with a vector capable of expressing CRISPR/Cas9. Only the cells in which the insertion was completed and knock-in had progressed were selected, sub-cultured and used.
(2) Treatment of Compounds of the Present Invention and Method of Luciferase Assay
In the case of HeLa LgBit (Plk1-HiBit KI), the compounds were treated after being released after thymidine block, and the process was as follows. Thymidine (Sigma-Aldrich Cat. No. T9250-5G) was completely dissolved in DW and used in the experiment. For thymidine block, the products were treated with 2 mM of thymidine and then incubated for 24 hours. For release and chemical treatment, the medium was suctioned and washed with 1×PBS. TrypLE™ was added and incubated in 37° C. CO2 incubator for 5 min. Cells neutralized by adding complete media were counted through a counter. For each well of a 96-well culture plate (SPL), 3.3×10^4 cells and a total medium volume of 150 μL were seeded and incubated in a CO2 incubator.
Each cell line was incubated in a CO2 incubator for 18 hours, and Endurazine was added to each well to make up 4% of the total volume. After adding the compound of the present invention in a 96-well white plate (SPL) to a concentration of 300 nM, the wavelength of the plate reader (BMG Labtech, CLARIOstar Plus) was set to […], and then the luminescence was tracked in real time.
In Table 2, Activity represents the ratio of the luminescense value of each Exemplary Compound treatment group to DMSO treatment group (+++: <0.3, ++<0.6, +<0.7).

T1 sequence (P53350 whole entry): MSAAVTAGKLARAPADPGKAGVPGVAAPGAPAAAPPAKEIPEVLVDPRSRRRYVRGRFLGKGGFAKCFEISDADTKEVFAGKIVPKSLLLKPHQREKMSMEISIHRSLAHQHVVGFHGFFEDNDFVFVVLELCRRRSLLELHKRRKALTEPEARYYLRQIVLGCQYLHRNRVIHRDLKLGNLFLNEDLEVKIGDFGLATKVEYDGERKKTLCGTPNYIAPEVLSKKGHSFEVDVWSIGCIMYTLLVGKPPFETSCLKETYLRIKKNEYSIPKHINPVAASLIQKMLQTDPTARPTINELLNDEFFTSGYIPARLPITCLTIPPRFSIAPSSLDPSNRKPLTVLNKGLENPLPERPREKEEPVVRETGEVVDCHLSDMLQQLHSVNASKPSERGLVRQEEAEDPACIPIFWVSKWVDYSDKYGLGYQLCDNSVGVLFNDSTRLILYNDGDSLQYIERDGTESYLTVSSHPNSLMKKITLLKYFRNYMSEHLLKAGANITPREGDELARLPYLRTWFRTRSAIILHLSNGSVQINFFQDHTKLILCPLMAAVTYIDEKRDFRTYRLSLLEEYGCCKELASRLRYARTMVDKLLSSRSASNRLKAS

COc1cc(C(=O)NC2CCN(CC3CCN(c4cccc5c4C(=O)N(C4CCC(=O)NC4=O)C5=O)C3)CC2)ccc1Nc1ncc2c(n1)N(C1CCCC1)CC(F)(F)C(=O)N2C (centres unmarked) [Compound 46, 4-((9-cyclopentyl-7,7-difluoro-5-methyl-6-oxo-6,7,8,9-tetrahydro-5H-pyrimido[4,5-b][1,4]diazepin-2-yl)amino)-N-(1-((1-(2-(2,6-dioxopiperidin-3-yl)-1,3-dioxoisoindolin-4-yl)pyrrolidin-3-yl)methyl)piperidin-4-yl)-3-methoxybenzamide]
Activity: ratio of the luminescense value of each Exemplary Compound treatment group to DMSO treatment group: ++ (++<0.6)

COc1cc(C(=O)NC2CCN(C[C@@H]3CCN(c4cccc5c4C(=O)N(C4CCC(=O)NC4=O)C5=O)C3)CC2)ccc1Nc1ncc2c(n1)N(C1CCCC1)CC(F)(F)C(=O)N2C (stereo partly drawn) [Compound 47, 4-((9-cyclopentyl-7,7-difluoro-5-methyl-6-oxo-6,7,8,9-tetrahydro-5H-pyrimido[4,5-b][1,4]diazepin-2-yl)amino)-N-(1-(((3S)-1-(2-(2,6-dioxopiperidin-3-yl)-1,3-dioxoisoindolin-4-yl)pyrrolidin-3-yl)methyl)piperidin-4-yl)-3-methoxybenzamide]
Activity: ratio of the luminescense value of each Exemplary Compound treatment group to DMSO treatment group: ++ (++<0.6)

COc1cc(C(=O)NC2CCN(C[C@@H]3CCN(c4ccc5c(c4)C(=O)N(C4CCC(=O)NC4=O)C5=O)C3)CC2)ccc1Nc1ncc2c(n1)N(C1CCCC1)CC(F)(F)C(=O)N2C (stereo partly drawn) [Compound 48, 4-((9-cyclopentyl-7,7-difluoro-5-methyl-6-oxo-6,7,8,9-tetrahydro-5H-pyrimido[4,5-b][1,4]diazepin-2-yl)amino)-N-(1-(((3S)-1-(2-(2,6-dioxopiperidin-3-yl)-1,3-dioxoisoindolin-5-yl)pyrrolidin-3-yl)methyl)piperidin-4-yl)-3-methoxybenzamide]
Activity: ratio of the luminescense value of each Exemplary Compound treatment group to DMSO treatment group: + (+<0.7)

COc1cc(C(=O)NC2CCN(CCCC3CCCN(c4cccc5c4C(=O)N(C4CCC(=O)NC4=O)C5=O)C3)CC2)ccc1Nc1ncc2c(n1)N(C1CCCC1)CC(F)(F)C(=O)N2C (centres unmarked) [Compound 57, 4-((9-cyclopentyl-7,7-difluoro-5-methyl-6-oxo-6,7,8,9-tetrahydro-5H-pyrimido[4,5-b][1,4]diazepin-2-yl)amino)-N-(1-(3-(1-(2-(2,6-dioxopiperidin-3-yl)-1,3-dioxoisoindolin-4-yl)piperidin-3-yl)propyl)piperidin-4-yl)-3-methoxybenzamide]
Activity: ratio of the luminescense value of each Exemplary Compound treatment group to DMSO treatment group: + (+<0.7)

COc1cc(C(=O)NC2CCN(C(=O)CCN3CCN(c4ccc5c(c4)CN(C4CCC(=O)NC4=O)C5=O)CC3)CC2)c(F)cc1Nc1ncc2c(n1)N(C1CCCC1)CC(F)(F)C(=O)N2C (centres unmarked) [Compound 61, 4-((9-cyclopentyl-7,7-difluoro-5-methyl-6-oxo-6,7,8,9-tetrahydro-5H-pyrimido[4,5-b][1,4]diazepin-2-yl)amino)-N-(1-(3-(4-(2-(2,6-dioxopiperidin-3-yl)-1-oxoisoindolin-5-yl)piperazin-1-yl)propanoyl)piperidin-4-yl)-2-fluoro-5-methoxybenzamide]
Activity: ratio of the luminescense value of each Exemplary Compound treatment group to DMSO treatment group: ++ (++<0.6)

COc1cc(C(=O)NC2CCN(C(=O)CCCN3CCN(c4cccc5c4C(=O)N(C4CCC(=O)NC4=O)C5=O)CC3)CC2)ccc1Nc1ncc2c(n1)N(C1CCCC1)CC(F)(F)C(=O)N2C (centres unmarked) [Compound 64, 4-((9-cyclopentyl-7,7-difluoro-5-methyl-6-oxo-6,7,8,9-tetrahydro-5H-pyrimido[4,5-b][1,4]diazepin-2-yl)amino)-N-(1-(4-(4-(2-(2,6-dioxopiperidin-3-yl)-1,3-dioxoisoindolin-4-yl)piperazin-1-yl)butanoyl)piperidin-4-yl)-3-methoxybenzamide]
Activity: ratio of the luminescense value of each Exemplary Compound treatment group to DMSO treatment group: ++ (++<0.6)

COc1cc(C(=O)NC2CCN(C(=O)CCCCN3CCN(c4cccc5c4C(=O)N(C4CCC(=O)NC4=O)C5=O)CC3)CC2)ccc1Nc1ncc2c(n1)N(C1CCCC1)CC(F)(F)C(=O)N2C (centres unmarked) [Compound 65, 4-((9-cyclopentyl-7,7-difluoro-5-methyl-6-oxo-6,7,8,9-tetrahydro-5H-pyrimido[4,5-b][1,4]diazepin-2-yl)amino)-N-(1-(5-(4-(2-(2,6-dioxopiperidin-3-yl)-1,3-dioxoisoindolin-4-yl)piperazin-1-yl)pentanoyl)piperidin-4-yl)-3-methoxybenzamide]
Activity: ratio of the luminescense value of each Exemplary Compound treatment group to DMSO treatment group: ++ (++<0.6)

COc1cc(C(=O)NC2CCN(C(=O)CCN3CCN(c4cccc5c4C(=O)N(C4CCC(=O)NC4=O)C5=O)CC3)CC2)ccc1Nc1ncc2c(n1)N(C1CC1)CC(F)(F)C(=O)N2C (centres unmarked) [Compound 67, 4-((9-cyclopropyl-7,7-difluoro-5-methyl-6-oxo-6,7,8,9-tetrahydro-5H-pyrimido[4,5-b][1,4]diazepin-2-yl)amino)-N-(1-(3-(4-(2-(2,6-dioxopiperidin-3-yl)-1,3-dioxoisoindolin-4-yl)piperazin-1-yl)propanoyl)piperidin-4-yl)-3-methoxybenzamide]
Activity: ratio of the luminescense value of each Exemplary Compound treatment group to DMSO treatment group: ++ (++<0.6)

CN1C(=O)C(F)(F)CN(C2CCCC2)c2nc(Nc3ccc(C(=O)NC4CCN(C(=O)CCN5CCN(c6cccc7c6C(=O)N(C6CCC(=O)NC6=O)C7=O)CC5)CC4)cc3OCCO)ncc21 (centres unmarked) [Compound 73, 4-((9-cyclopentyl-7,7-difluoro-5-methyl-6-oxo-6,7,8,9-tetrahydro-5H-pyrimido[4,5-b][1,4]diazepin-2-yl)amino)-N-(1-(3-(4-(2-(2,6-dioxopiperidin-3-yl)-1,3-dioxoisoindolin-4-yl)piperazin-1-yl)propanoyl)piperidin-4-yl)-3-(2-hydroxyethoxy)benzamide]
Activity: ratio of the luminescense value of each Exemplary Compound treatment group to DMSO treatment group: ++ (++<0.6)

CN1C(=O)C(F)(F)CN(C2CCCC2)c2nc(Nc3ccc(C(=O)NC4CCN(C(=O)CCN5CCN(c6cccc7c6C(=O)N(C6CCC(=O)NC6=O)C7=O)CC5)CC4)cc3C(F)(F)F)ncc21 (centres unmarked) [Compound 75, 4-((9-cyclopentyl-7,7-difluoro-5-methyl-6-oxo-6,7,8,9-tetrahydro-5H-pyrimido[4,5-b][1,4]diazepin-2-yl)amino)-N-(1-(3-(4-(2-(2,6-dioxopiperidin-3-yl)-1,3-dioxoisoindolin-4-yl)piperazin-1-yl)propanoyl)piperidin-4-yl)-3-(trifluoromethyl)benzamide]
Activity: ratio of the luminescense value of each Exemplary Compound treatment group to DMSO treatment group: ++ (++<0.6)

COc1cc(C(=O)NC2CCN(C(=O)COC3CN(c4cccc5c4C(=O)N(C4CCC(=O)NC4=O)C5=O)C3)CC2)ccc1Nc1ncc2c(n1)N(C1CCCC1)CC(F)(F)C(=O)N2C (centres unmarked) [Compound 80, 4-((9-cyclopentyl-7,7-difluoro-5-methyl-6-oxo-6,7,8,9-tetrahydro-5H-pyrimido[4,5-b][1,4]diazepin-2-yl)amino)-N-(1-(2-((1-(2-(2,6-dioxopiperidin-3-yl)-1,3-dioxoisoindolin-4-yl)azetidin-3-yl)oxy)acetyl)piperidin-4-yl)-3-methoxybenzamide]
Activity: ratio of the luminescense value of each Exemplary Compound treatment group to DMSO treatment group: ++ (++<0.6)

COc1cc(C(=O)N[C@H]2CCN(C(=O)CCN3CCN(c4ccc5c(c4)CN(C4CCC(=O)NC4=O)C5=O)CC3)C2)c(F)cc1Nc1ncc2c(n1)N(C1CCCC1)CC(F)(F)C(=O)N2C (stereo partly drawn) [Compound 84, 4-((9-cyclopentyl-7,7-difluoro-5-methyl-6-oxo-6,7,8,9-tetrahydro-5H-pyrimido[4,5-b][1,4]diazepin-2-yl)amino)-N-((3S)-1-(3-(4-(2-(2,6-dioxopiperidin-3-yl)-1-oxoisoindolin-5-yl)piperazin-1-yl)propanoyl)pyrrolidin-3-yl)-2-fluoro-5-methoxybenzamide]
Activity: ratio of the luminescense value of each Exemplary Compound treatment group to DMSO treatment group: ++ (++<0.6)

COc1cc(C(=O)N2CCN(CCCN3CCN(c4cccc5c4C(=O)N(C4CCC(=O)NC4=O)C5=O)CC3)CC2)ccc1Nc1ncc2c(n1)N(C1CCCC1)CC(F)(F)C(=O)N2C (centres unmarked) [Compound 87, 4-(4-(3-(4-(4-((9-cyclopentyl-7,7-difluoro-5-methyl-6-oxo-6,7,8,9-tetrahydro-5H-pyrimido[4,5-b][1,4]diazepin-2-yl)amino)-3-methoxybenzoyl)piperazin-1-yl)propyl)piperazin-1-yl)-2-(2,6-dioxopiperidin-3-yl)isoindoline-1,3-dione]
Activity: ratio of the luminescense value of each Exemplary Compound treatment group to DMSO treatment group: ++ (++<0.6)

COc1cc(C(=O)N2CCN(CCCCN3CCN(c4cccc5c4C(=O)N(C4CCC(=O)NC4=O)C5=O)CC3)CC2)ccc1Nc1ncc2c(n1)N(C1CCCC1)CC(F)(F)C(=O)N2C (centres unmarked) [Compound 88, 4-(4-(4-(4-(4-((9-cyclopentyl-7,7-difluoro-5-methyl-6-oxo-6,7,8,9-tetrahydro-5H-pyrimido[4,5-b][1,4]diazepin-2-yl)amino)-3-methoxybenzoyl)piperazin-1-yl)butyl)piperazin-1-yl)-2-(2,6-dioxopiperidin-3-yl)isoindoline-1,3-dione]
Activity: ratio of the luminescense value of each Exemplary Compound treatment group to DMSO treatment group: ++ (++<0.6)

— patent publication US20250114460A1, “NOVEL PLK1 DEGRADATION INDUCING COMPOUND” (UPPTHERA, INC., priority 2021, published 2025)
